The IC50 is the concentration that gives 50% inhibition.

We go through 14 molecules from paper PMC7230162, “Syntheses and Glycosidase Inhibitory Activities, and in Silico Docking Studies of Pericosine E Analogs Methoxy-Substituted at C6” (Marine Drugs, 2020).

Read-outs that look alike come from different tables or passages of the source. A value given as a limit tells only on which side of the number the result lay.

The target in experiment [1] is T1, α-mannosidase (Jack Bean) (Canavalia ensiformis, UniProt C0HJB3).
T1 construct: purchased Sigma-Aldrich Co., LLC lot 055K7047 (catalogue number not given)
The following applies: read-out: IC50 (M) α-mannosidase (Jack Bean); values of a previous work; cited from earlier work.

For experiment [2], the target named is β-glucosidase (Sweet Almond). Details: method as in PMID 28124983. The note with it: values of a previous work; cited from earlier work.
Experiment [3] addresses T2, β-galactosidase (Bovine Liver) (Bos taurus, UniProt Q58D55).
T2 sequence (Q58D55 28-653): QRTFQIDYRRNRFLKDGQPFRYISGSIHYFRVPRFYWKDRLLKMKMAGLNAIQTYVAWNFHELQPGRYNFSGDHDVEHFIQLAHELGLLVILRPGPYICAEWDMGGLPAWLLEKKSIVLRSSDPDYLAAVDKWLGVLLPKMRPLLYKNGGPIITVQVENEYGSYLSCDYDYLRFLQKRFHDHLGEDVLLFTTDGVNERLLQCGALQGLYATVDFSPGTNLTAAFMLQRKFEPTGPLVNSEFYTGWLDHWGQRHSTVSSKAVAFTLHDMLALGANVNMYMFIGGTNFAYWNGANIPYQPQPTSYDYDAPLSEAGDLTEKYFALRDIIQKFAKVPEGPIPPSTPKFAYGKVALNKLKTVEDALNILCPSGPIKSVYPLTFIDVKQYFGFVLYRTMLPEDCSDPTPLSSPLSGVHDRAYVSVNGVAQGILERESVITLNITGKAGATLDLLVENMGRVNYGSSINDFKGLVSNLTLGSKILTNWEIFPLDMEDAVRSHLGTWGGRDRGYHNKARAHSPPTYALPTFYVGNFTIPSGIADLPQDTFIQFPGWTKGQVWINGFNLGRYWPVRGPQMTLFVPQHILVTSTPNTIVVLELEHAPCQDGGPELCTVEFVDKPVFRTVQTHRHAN
Description: β-galactosidase inhibitory activity assay (p-nitrophenyl-β-D-galactopyranoside). Format: biochemical. An excerpt: (§1) The synthesized compounds were subjected to glycosidase inhibitory activity assays (Table 1). Herein, α-galactosidase (from green coffee bean) and β-galactosidase (from bovine lever) were used in addition to the three previously employed glycosidases (α-glucosidase, β-glucosidase, and α-mannosidase). To facilitate comparison across studies, we used the same batches of the three abovementioned glycosidases as those employed before. Some compounds were not tested against all five enzymes because of the limited amount of materials.
Infrared (IR) spectra were recorded on a 1720X Fourier transformation-infrared (FT-IR) spectrometer (Perkin Elmer, MA, USA) or an IRAffinity-1S FT-IR spectrometer (Shimadzu, Kyoto, Japan). High-resolution mass spectra (HRMS) were recorded on a JMS-700 (2) mass spectrometer (JEOL, Tokyo, Japan). Nuclear magnetic resonance (NMR) spectra were recorded at 27 °C on 400-MR-DD2 (Agilent Technologies, CA, USA) and 600-DD2 (Agilent Technologies, CA, USA) instruments in CDCl3 or acetone-d6 using tetramethylsilane as an internal standard. Specific rotations were measured with a JASCO P-2300 spectrometer (JASCO Co., Tokyo, Japan). […]
After 20 min incubation at 37 °C, the reaction was quenched by addition of Na2CO3 solution (0.5 M, 100 μL). The amount of liberated p-nitrophenol was measured colorimetrically at 400 nm (optical density at 400 nm: ODtest). […]

For experiment [4], the target named is β-glucosidase (Sweet Almond). Description: β-glucosidase inhibitory activity assay (p-nitrophenyl-β-D-glucopyranoside). The format is biochemical. On the procedure: (§2) Infrared (IR) spectra were recorded on a 1720X Fourier transformation-infrared (FT-IR) spectrometer (Perkin Elmer, MA, USA) or an IRAffinity-1S FT-IR spectrometer (Shimadzu, Kyoto, Japan). High-resolution mass spectra (HRMS) were recorded on a JMS-700 (2) mass spectrometer (JEOL, Tokyo, Japan). Nuclear magnetic resonance (NMR) spectra were recorded at 27 °C on 400-MR-DD2 (Agilent Technologies, CA, USA) and 600-DD2 (Agilent Technologies, CA, USA) instruments in CDCl3 or acetone-d6 using tetramethylsilane as an internal standard. Specific rotations were measured with a JASCO P-2300 spectrometer (JASCO Co., Tokyo, Japan). Liquid column chromatography was conducted on silica gel (Fuji Silysia FL-60D). Analytical thin layer chromatography (TLC) was performed on Silicagel 70 F254 plates (Wako Pure Chemical Industries, Tokyo, Japan), and compounds were detected by dipping the plates into an ethanolic solution of phosphomolybdic acid followed by heating. Microwave (MW)-aided reactions were carried out in a Biotage Initiator® reactor (PartnerTech Atvidaberg AB for Biotage Sweden AB, Uppsala, Sweden). NaBH4 and trifluoroacetic acid (TFA) were purchased from Wako Pure Chemical Industries (Wako Pure Chemical Industries, Tokyo, Japan). BF3·Et2O was purchased from Sigma-Aldrich Co., LLC (St. Lewis, MO, USA). DMP was purchased from TCI (Tokyo Chemical Industry Co., Ltd., Tokyo, Japan). […] Deoxygalactonojirimycin was purchased from Funakoshi Co., Ltd., Tokyo, Japan).
(§3) After 20 min incubation at 37 °C, the reaction was quenched by addition of Na2CO3 solution (0.5 M, 100 μL). The amount of liberated p-nitrophenol was measured colorimetrically at 400 nm (optical density at 400 nm: ODtest).
Assays of β-glucosidase, α-mannosidase, β-mannosidase, and β-galactosidase inhibitory activities were carried out as above using p-nitrophenyl-β-D-glucopyranoside, p-nitrophenyl-α-D-mannopyranoside, p-nitrophenyl-β-D-mannopyranoside, and p-nitrophenyl-β-D-galactopyranoside as substrates.

Experiment [5] has as its target T3, α-glucosidase (Yeast) (Saccharomyces cerevisiae, UniProt P53341). Nature of the experiment: α-glucosidase inhibitory activity assay (p-nitrophenyl-α-D-glucopyranoside). Format: biochemical.
From the text: as §1, §2, §3

In experiment [6] the target is T3, α-glucosidase (Yeast). The note with it: cited from earlier work; for IC50: values of a previous work.

T1 sequence (C0HJB3 1-562): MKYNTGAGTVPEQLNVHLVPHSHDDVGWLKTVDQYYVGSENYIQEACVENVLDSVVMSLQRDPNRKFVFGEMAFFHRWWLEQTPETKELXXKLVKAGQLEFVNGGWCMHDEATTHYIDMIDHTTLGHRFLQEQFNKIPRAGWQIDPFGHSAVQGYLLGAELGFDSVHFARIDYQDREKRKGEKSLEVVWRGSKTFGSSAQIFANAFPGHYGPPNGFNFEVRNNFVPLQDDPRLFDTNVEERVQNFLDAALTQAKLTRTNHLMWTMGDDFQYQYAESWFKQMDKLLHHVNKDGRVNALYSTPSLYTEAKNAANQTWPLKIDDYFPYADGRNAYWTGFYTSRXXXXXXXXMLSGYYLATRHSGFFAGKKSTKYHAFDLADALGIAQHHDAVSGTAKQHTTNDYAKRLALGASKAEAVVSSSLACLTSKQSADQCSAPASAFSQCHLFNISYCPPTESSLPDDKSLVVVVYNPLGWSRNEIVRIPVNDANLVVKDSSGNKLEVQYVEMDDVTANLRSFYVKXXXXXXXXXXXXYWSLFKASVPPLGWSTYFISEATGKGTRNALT
T1 sequence (C0HJB3 563-981): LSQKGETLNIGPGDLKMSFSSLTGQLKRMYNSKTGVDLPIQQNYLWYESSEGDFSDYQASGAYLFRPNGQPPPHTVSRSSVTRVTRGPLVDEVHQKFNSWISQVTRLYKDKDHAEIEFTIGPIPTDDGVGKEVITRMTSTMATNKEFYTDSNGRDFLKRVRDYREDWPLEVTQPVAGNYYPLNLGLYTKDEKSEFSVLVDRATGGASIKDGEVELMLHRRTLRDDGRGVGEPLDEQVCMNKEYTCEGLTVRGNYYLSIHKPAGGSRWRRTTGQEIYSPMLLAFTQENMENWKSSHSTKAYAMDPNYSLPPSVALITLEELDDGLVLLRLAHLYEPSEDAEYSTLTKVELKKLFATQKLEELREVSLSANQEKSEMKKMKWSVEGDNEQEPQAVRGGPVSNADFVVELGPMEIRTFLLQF
T3 sequence (P53341 whole entry): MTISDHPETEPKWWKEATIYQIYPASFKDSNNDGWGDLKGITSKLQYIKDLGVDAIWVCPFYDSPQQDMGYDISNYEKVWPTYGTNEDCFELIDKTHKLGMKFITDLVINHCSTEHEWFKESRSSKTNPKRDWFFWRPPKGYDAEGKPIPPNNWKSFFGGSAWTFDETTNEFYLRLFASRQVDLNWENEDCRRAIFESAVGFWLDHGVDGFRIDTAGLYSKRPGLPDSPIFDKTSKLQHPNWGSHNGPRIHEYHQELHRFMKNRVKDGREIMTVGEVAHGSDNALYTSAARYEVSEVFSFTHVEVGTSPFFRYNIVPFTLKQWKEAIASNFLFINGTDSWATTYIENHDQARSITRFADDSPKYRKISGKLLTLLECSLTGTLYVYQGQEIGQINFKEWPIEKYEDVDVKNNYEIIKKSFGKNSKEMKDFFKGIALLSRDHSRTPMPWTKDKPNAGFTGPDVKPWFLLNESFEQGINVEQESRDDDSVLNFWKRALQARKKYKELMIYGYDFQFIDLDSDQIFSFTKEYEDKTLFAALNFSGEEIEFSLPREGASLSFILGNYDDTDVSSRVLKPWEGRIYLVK

On to `COC(=O)C1=CC(O)C(O)C(OC2C(C(=O)OC)=CC(O)C(O)C2O)C1Cl` (single isomer, unassigned; (-)) [(−)-5], for which the figures for the IC50 in experiment [1] and in experiment [2] were more than 0.0078 M and more than 7.8 mM, respectively. `OC[C@H]1NC[C@H](O)[C@@H](O)[C@H]1O` [Deoxygalactonojirimycin, reference compound] displayed an IC50 in experiment [3] of 0.14 mM. For `COC(=O)C1=CC(O)C(O)C(O)C1OC1C(OC)C(C(=O)OC)=CC(O)C1O` (single isomer, unassigned; (-)) [(−)-9], the IC50 in experiment [4] was […]. Consider `OC[C@H]1NC[C@@H](O)[C@@H](O)[C@@H]1O` [Deoxymannojirimycin, deoxymannojirimycin, reference compound], for which the IC50 in experiment [4] is […]. The molecule `COC(=O)C1=CC(O)C(O)C(O)C1OC1C(OC)C(C(=O)OC)=CC(O)C1O` (single isomer, unassigned; (+)) [(+)-6] registered an IC50 in experiment [4] of […]. Besides, the “α-glucosidase inhibitory activity (in words)” value at α-glucosidase (Yeast) [5] is listed as “moderately inhibited”. For `COC(=O)C1=C[C@H](O)[C@H](O)[C@H](O[C@H]2C(C(=O)OC)=C[C@@H](O)[C@@H](O)[C@H]2O)[C@H]1Cl` [(+)-4, (+)-pericosine E], the IC50 in experiment [1] is more than 0.0078 M; in experiment [2] it was more than 7.8 mM; at α-glucosidase (Yeast) [6], 0.031 mM. The “α-glucosidase inhibitory activity (in words)” value at α-glucosidase (Yeast) [6] is “potent activity”. `COC(=O)C1=CC(O)C(O)C(O)C1OC1C(OC)C(C(=O)OC)=CC(O)C1O` (single isomer, unassigned; (-)) [(−)-7] yielded an IC50 in experiment [4] of […]. Besides, the “α-glucosidase inhibitory activity (in words)” value on α-glucosidase (Yeast) [5] is “moderately inhibited”. Take `COC(=O)C1=CC(O)C(O)C(O)C1OC1C(OC)C(C(=O)OC)=CC(O)C1O` (single isomer, unassigned; (+)) [(+)-14]: in experiment [4], the IC50 is […]. Still for that read-out and setting: with `OC[C@H]1NC[C@H](O)[C@@H](O)[C@@H]1O` [Deoxynojirimycin (DNJ), 1-Deoxynojirimycin, reference compound] the figure was […]. On the same count and under the same terms, in the case of `COC(=O)C1=C[C@@H](O)[C@@H](O)[C@@H](O[C@H]2C(C(=O)OC)=C[C@@H](O)[C@@H](O)[C@@H]2O)[C@@H]1OC` [(−)-21] it was […]. Regarding `COC(=O)C1=C[C@@H](O)[C@@H](O)[C@@H](O[C@@H]2C(C(=O)OC)=C[C@H](O)[C@H](O)[C@@H]2O)[C@@H]1Cl` [(−)-4, (−)-pericosine E], the IC50 in experiment [1] was more than 0.0078 M; in experiment [2], more than 7.8 mM; on α-glucosidase (Yeast) [6], 1.5 mM. With `COC(=O)C1=CC(O)C(O)C(O)C1OC1C(OC)C(C(=O)OC)=CC(O)C1O` (single isomer, unassigned; (-)) [(−)-24], the concentration for half-maximal inhibition (IC50) in experiment [4] was […]. Moreover, the “α-glucosidase inhibitory activity (in words)” value on α-glucosidase (Yeast) [5] is reported as “moderately inhibited”. In addition, the “β-galactosidase inhibitory activity (in words)” value in experiment [3] is listed as “showed β-galactosidase inhibitory activities”. Turning to `COC(=O)C1=C[C@H](O)[C@H](O)[C@H](O[C@H]2C(C(=O)OC)=C[C@@H](O)[C@@H](O)[C@@H]2O)[C@@H]1OC` [(−)-18], the IC50 in experiment [4] is […]. The molecule `COC(=O)C1=CC(O)C(O)C(O)C1OC1C(OC)C(C(=O)OC)=CC(O)C1O` (single isomer, unassigned; (-)) [(−)-8] gave an IC50 in experiment [4] of […]. Moreover, on α-glucosidase (Yeast) [5], the “α-glucosidase inhibitory activity (in words)” value is “moderately inhibited”.
